Tested on: lesions of telangiectatic melasma
Source text: As is known, the increase in pigmentation occurs to a greater extent during the day, wherein the action of the light is an important causal factor.

For `Brc1c(NC2=NCCN2)ccc2nccnc12` [brimonidine], the “duration of effects in minimising the deterioration brought about by sunlight” value (applied in the morning) was “up to 9 hours”, the “improvement of the lesions of telangiectatic melasma” value (topical, following a period of 30 to 60 minutes from application) was “immediate and obvious improvement” and the “improvement in the hyperpigmentation of the skin of the melasma lesions” value (topical, minutes following application, patient (FIGS. 1-4)) was “effective improvement in the hyperpigmentation”.

From patent US10744135B2, “Use of an active substance in the treatment of melasma” (priority 2016, dated 2020)
